From article PMC7094952 (Nature, 2010)
≈ marks a conversion by molar mass, not a printed value. Where “and” joins values, the source holds several entries; their conditions need not be identical. Equal values may be shown once. Entries after “also recorded” stand apart in the source; their conditions may differ. Read-outs that look alike come from different tables or passages of the source.

Assays:
BVDV replicon = assay: BVDV replicon; assay type: cell-based, bovine viral diarrhoea virus; conditions: Bovine viral diarrhea virus isolates and strains, Huh-7, in Bos taurus
Infectious BVDV = assay: BVDV cell protection assay; assay type: cell-based, bovine viral diarrhoea virus; conditions: Bovine viral diarrhea virus isolates and strains, MDBK, in Bos taurus
[1] = Cytotoxicity in Huh-7 cells; assay type: cell-based; conditions: human, Huh-7 cells (liver)
[2] = tested on: panel of 10 RNA and DNA viruses; assay: organism not typed; assay type: cell-based
[3] = tested on: HCV genotype 1a replicon (NS5A variants); assay: Transient replication assay, genotype 1a wild type and resistant variants; assay type: cell-based; conditions: Hepatitis C virus, GETYPE1A, most resistant 1a variant, L31V
HCV replicon = HCV replicon inhibitor combination studies; assay type: cell-based, hepatitis C virus; conditions: overall
[4] = tested on: genotype 1a replicon cells; assay: HCV replicon combination study with NS3 inhibitor in genotype 1a replicon cells; assay type: cell-based, hepatitis C virus; conditions: ITMN-191, overall
genotype 1a replicon = assay: Genotype 1a replicon assay with 40% human serum; assay type: cell-based; conditions: Hepatitis C virus, GETYPE1A, read-out: EC90 (protein-binding-adjusted)
genotype 1b replicon = assay: Genotype 1b replicon assay with 40% human serum; assay type: cell-based; conditions: Hepatitis C virus, GETYPE1B, read-out: EC90 (protein-binding-adjusted)
[5] = Battery of in vitro receptor binding and enzymatic assays; conditions: assessment of promiscuity
[6] = Preclinical pharmacokinetics; assay type: in vivo, four preclinical species
[7] = Single ascending-dose study in healthy, non-HCV-infected subjects; assay type: in vivo, human
HCV genotype 1 = assay: Single ascending-dose study in HCV-infected subjects: plasma HCV RNA; assay type: in vivo, human
HCV genotype 1a = assay type: in vivo, human; conditions: genotype 1a subjects, 24 h
HCV genotype 1b = assay type: in vivo, human; conditions: for mean reduction in HCV viral load / range of reduction in HCV viral load: genotype 1b subjects, 24 h
[8] = tested on: HCV replicons of genotypes 1a, 1b, 2a, 3a, 4a and 5a; assay: HCV replicons, all genotypes tested; assay type: cell-based; conditions: Hepatitis C virus, read-out: EC50 values, all genotypes tested
[9] = tested on: HCV replicon genotype 1b, Con1; assay: HCV genotype 1b; assay type: cell-based; conditions: Hepatitis C virus, GETYPE1B, read-out: EC50 (subgenomic viral RNA replication)
genotype 1b HCV NS5A = biological target: T1, genotype 1b HCV NS5A (Hepatitis C virus genotype 1b, UniProt Q9WMX2, S2204I); assay: NS5A inhibitor binding assay; conditions: 1 μM, genotype 1b replicon cells, about 18 h, streptavidin agarose beads, immunoblot
T1 sequence (Q9WMX2 1973-2419 S2204I limits assumed): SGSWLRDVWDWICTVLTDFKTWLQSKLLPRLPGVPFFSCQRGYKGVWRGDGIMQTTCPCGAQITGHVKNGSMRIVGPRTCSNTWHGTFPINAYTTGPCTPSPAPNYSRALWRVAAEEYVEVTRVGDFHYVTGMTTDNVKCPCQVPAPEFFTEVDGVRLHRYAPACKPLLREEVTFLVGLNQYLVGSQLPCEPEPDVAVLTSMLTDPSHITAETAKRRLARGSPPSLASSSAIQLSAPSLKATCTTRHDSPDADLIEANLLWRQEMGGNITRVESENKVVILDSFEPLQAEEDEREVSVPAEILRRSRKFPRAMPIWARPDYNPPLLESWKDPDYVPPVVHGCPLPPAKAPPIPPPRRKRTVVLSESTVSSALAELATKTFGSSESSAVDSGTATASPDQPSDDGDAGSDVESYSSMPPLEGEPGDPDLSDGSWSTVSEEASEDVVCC

HCV NS3 = HCV NS3 (Hepatitis C virus genotype 1b, UniProt Q9WMX2); assay: Biotin/streptavidin pull-down, immunoblot for NS3; assay type: binding; conditions: genotype 1b replicon cells
HCV NS5B = HCV NS5B (Hepatitis C virus genotype 1b, UniProt Q9WMX2); assay: Biotin/streptavidin pull-down, immunoblot for NS5B; assay type: binding; conditions: genotype 1b replicon cells
BVDV NS5A = biological target: T2, BVDV NS5A (Bovine viral diarrhea virus, UniProt P19711); assay: Biotin/streptavidin pull-down in BVDV replicons; assay type: binding, bovine viral diarrhoea virus; conditions: replicons expressing BVDV RNA
T2 sequence (P19711 2774-3269 limits assumed): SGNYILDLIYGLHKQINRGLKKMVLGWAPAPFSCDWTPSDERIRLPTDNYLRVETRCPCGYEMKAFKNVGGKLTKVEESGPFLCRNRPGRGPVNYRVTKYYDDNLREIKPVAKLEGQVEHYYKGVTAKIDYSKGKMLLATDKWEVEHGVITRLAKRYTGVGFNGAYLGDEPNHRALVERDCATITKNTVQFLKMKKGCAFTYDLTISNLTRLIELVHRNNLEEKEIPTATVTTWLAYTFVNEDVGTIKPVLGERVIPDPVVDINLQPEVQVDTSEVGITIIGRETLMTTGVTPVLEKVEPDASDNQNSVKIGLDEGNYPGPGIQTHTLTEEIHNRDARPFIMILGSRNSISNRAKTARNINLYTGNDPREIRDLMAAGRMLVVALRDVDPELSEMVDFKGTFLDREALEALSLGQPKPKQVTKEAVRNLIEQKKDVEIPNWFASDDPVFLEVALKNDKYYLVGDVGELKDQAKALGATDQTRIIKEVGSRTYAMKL

Y93H replicon = Y93H replicon assay; assay type: cell-based; conditions: Hepatitis C virus
[10] = 1 mg single dose, 24 h after administration

Work on `COC(=O)N[C@H](C(=O)N1CCC[C@H]1c1ncc(-c2ccc(-c3ccc(-c4cnc([C@@H]5CCCN5C(=O)[C@@H](NC(=O)OC)C(C)C)[nH]4)cc3)cc2)[nH]1)C(C)C` [BMS-790052] yielded an EC50 (BVDV replicon) of 9 µM, an EC50 (Infectious BVDV) of 12 µM and a CC50 [1] of 17 ± 1 µM. For the same molecule, the EC50 [2] was over 10 µM, the EC50 [3] was about 0.02 µM and the “Combination effect with Interferon-α2β (intron A)” value (HCV replicon) was “Synergistic”. The “Combination effect with nucleoside NS5B polymerase inhibitor NM-107” value (HCV replicon) was “Additive/synergistic”, the “Combination effect with non-nucleoside NS5B polymerase inhibitor” value (HCV replicon; palm site II allosteric inhibitor) was “Additive/synergistic” and the “Combination effect with NS3 protease inhibitor” value [4] was “Additive/synergistic”. The EC90 (genotype 1a replicon) was 0.28 ng/mL (≈ 0.379 nM), the EC90 (genotype 1b replicon) was 0.04 ng/mL (≈ 0.0541 nM) and the “Effects in battery of in vitro receptor binding and enzymatic assays” value [5] was “no significant effects”. For the same molecule, the Oral bioavailability ([6]; four preclinical species) was “orally bioavailable”, the Liver distribution ([6]; preclinical species) was “distributes effectively to the liver” and the “Drug concentrations at and beyond 24 h post-dose” value ([7]; all healthy subjects, versus EC90 for genotypes 1a and 1b) was “greater than the protein-binding-adjusted EC90”. The Exposure versus dose ([7]; healthy subjects, 1 to 200 mg oral solution) was “dose-proportional exposures”, the “Absorption after oral administration” value ([7]; healthy subjects, oral solution) was “readily absorbed” and the Safety and tolerability ([7]; healthy subjects, single oral doses up to 200 mg) was “safe and well tolerated”. For the same molecule, the “mean reduction in HCV viral load” value (HCV genotype 1; [10]) was 1.8 log10, the “range of reduction in HCV viral load” value (HCV genotype 1; [10]) was 0.2–3.0 log10 and the “mean maximal HCV RNA decline” value (HCV genotype 1; 100 mg single dose) was 3.6 log10. For the same molecule, the “range of maximal HCV RNA decline” value (HCV genotype 1; 100 mg single dose) was 3.0–4.1 log10, the “mean reduction in HCV viral load” value (HCV genotype 1a; 1 mg) was 1.8 log10 and the “range of reduction in HCV viral load” value (HCV genotype 1a; 1 mg) was 0.2–3.0 log10. The “mean reduction in HCV viral load” value (HCV genotype 1a; 10 mg) was 2.9 log10, the “range of reduction in HCV viral load” value (HCV genotype 1a; 10 mg) was 2.9–3.0 log10 and the “mean reduction in HCV viral load” value (HCV genotype 1a; 100 mg) was 3.6 log10. The “range of reduction in HCV viral load” value (HCV genotype 1a; 100 mg) was 3.5–3.6 log10, the “HCV RNA measurement at hour 144” value (HCV genotype 1b; 100 mg single dose, two individual subjects with genotype 1b) was “less than 25 IU ml^-1 and 35 IU ml^-1” and the “mean reduction in HCV viral load” value (HCV genotype 1b; 10 mg) was 3.6 log10. For the same molecule, the “range of reduction in HCV viral load” value (HCV genotype 1b; 10 mg) was 3.1–4.0 log10, the “mean reduction in HCV viral load” value (HCV genotype 1b; 100 mg) was 3.1 log10 and the “range of reduction in HCV viral load” value (HCV genotype 1b; 100 mg) was 2.7–3.4 log10. For the same molecule, the EC50 [8] was 0.009 to 0.146 nM, the “Headache (most frequent adverse event), subjects reporting” value (HCV-infected subjects) was “four” and the Safety and tolerability (HCV-infected subjects, single oral doses up to 100 mg) was “safe and well tolerated”. The half-life (both, human, plasma, po) was 10 to 14 h.
In the case of `O=C1N[C@H]2[C@H](CS[C@H]2CCCCC(=O)N2CCC[C@H]2C(=O)Nc2ccc(/C=C/c3ccc(NC(=O)[C@@H]4CCCN4C(=O)Cc4ccccc4)cc3)cc2)N1` [Compound 1], the EC50 [9] is reported as 0.033 µM, the “Binding to HCV NS5A (pull-down)” value (genotype 1b HCV NS5A) is reported as “pulled down efficiently; also recorded: binds” and the NS3 in pull-down (HCV NS3) is reported as “not detected”. The NS5B in pull-down (HCV NS5B) was “not detected”, the “Binding to BVDV NS5A (pull-down)” value (BVDV NS5A) was “failed to bind” and the EC50 (Y93H replicon) was over 10 µM.
With `O=C1N[C@H]2[C@H](CS[C@H]2CCCCC(=O)N2CCC[C@@H]2C(=O)Nc2ccc(/C=C/c3ccc(NC(=O)[C@H]4CCCN4C(=O)Cc4ccccc4)cc3)cc2)N1` [Compound 2] the “Binding to HCV NS5A (pull-down)” value (genotype 1b HCV NS5A) was “does not”.
